# Where “and” joins values, the source holds several entries; their conditions need not be identical. Equal values may be shown once.
# Tests used:
# [1] = system: gelatin; experiment: Advanced Glycation End Product Assay (AGE Assay), yellowness (b*) readout; assay type: biochemical; conditions: 24 hours; for % Δb* (yellowness) from a treatment vs positive glycation control / Convert to % Δb* inhibition (100%-% Δb*) / Convert to % Δb* inhibition (100-% Δb*): samples 1-3
# Description: (§1) The AGE Assay provides an in vitro method of determining how a test agent impacts glycation. In particular, a material of interest can be applied to gelatin, which acts as a surrogate for collagen (i.e., a heterogeneous mixture of high-average-molecular-mass, water-soluble proteins present in collagen), at neutral pH range. A glycating reagent is added to the gelatin matrix to initialize glycation reaction. The resulting AGEs detected by a spectrophotometer. When testing a material of interest, such as lactobionic acid and/or white water lily extract is added to the gelatin sample, it reacts with the proteins in the gelatin, much in the same way as it would with collagen. Glycation reaction will be initiated when glycating reagent is added into this material and gelatin matrix and will produce AGEs. A positive (pos) glycation control group is set up the same way as testing material groups to contain gelatin and glycating reagent but less any treatment material. The positive control group depicts how much glycation and yellowness can be formed without perturbation by any treatment material. The spectrophotometer detects the fluorescence intensity (“FLR”) or yellowness (b*) associated with the resulting AGEs, which can then be correlated to the amount of glycation that occurs in skin. Lower b* and FLR values correspond to less AGEs, and thus less glycation.
# (§2) Three replicates of each test samples are prepared in a 96-well plate (e.g., a FALCON brand 96-well tissue culture plate or equivalent) at equal and defined volume. The plate(s) containing the test samples are placed in a standard cell culture incubator (e.g., THERMO SCIENTIFIC FORMA brand incubator available from Fisher Scientific, Waltham, MA or equivalent) and incubated for the duration of the test at 37° C. with 5% CO2 and 95% relative humidity. Fluorescence intensity (FLR) and yellowness are measured at the start of test (time=0) and monitored for 24 hours. To measure FLR or b*, the plate(s) containing the test samples are removed from the incubator and placed in a SPECTRAMAX Plus brand spectrophotometer (available from Molecular Devices, Sunnyvale, California) or equivalent. To detect fluorescence intensity (“FLR”), the spectrophotometer is set at 400/465 nm (ex/em). To detect yellowness (b*), the spectrophotometer is set to collect absorbance spectrum from 350 nm to 750 nm in 10 nm increments. The absorbance spectra from the yellowness measurement are then converted to L*a*b* values by a computer using suitable conversion software.
# (§3) The change in fluorescence intensity (“ΔFLR”) is determined by comparing the FLR of a well at a sampling time point to the initial FLR at time=0. The change in yellowness (“Δb*”) at a particular time point is determined by comparing the initial b* value at time=0 to the b* value at the time point of interest. To determine the relative amount of glycation or yellowness formed due to a treatment effect compared to the positive glycation control group, which doesn't contain any active treatment, the ΔFLR and Δb* values from a treatment group is normalized against the corresponding values from the positive glycation control group (pos glycation) according to the following equation: […]
# (§4) The test samples were prepared in triplicate for each testing group on a 96-well plate with 250 μl volume per well. Each well contains 2.25 mg gelatin (available from Sigma® as Catalog #G1393), the testing material(s) diluted to desired concentration, 40 mM DL-Glyceraldehyde (available from Sigma®, Catalog #G5001-5G), and a sufficient quantity of Dulbecco's phosphate buffered saline (“DPBS”) (available from Gibco's, Catalog #14190-144). The vehicle control contained 2.25 mg gelatin and a sufficient quantity of DPBS. The positive glycation control contained 2.25 mg gelatin, 40 mM DL-glyceraldehyde and DPBS.
# (§5) The average glycation, ΔFLR, and yellowness, Δb*, were determined for each sample according to the AGE Assay described herein. The duration of the test was 24 hours. […]
# [2] = system: gelatin; experiment: Advanced Glycation End Product Assay (AGE Assay), fluorescence intensity (FLR, glycation) readout; assay type: biochemical; conditions: 24 hours
# Description: as §1, §2, §3, §4, §5
# [3] = 0.101% lactobionic acid, Table 3
# [4] = 0.101% lactobionic acid, Table 4, samples 1-3
# [5] = 0.2% lactobionic acid, Table 2, samples 1-3
smiles,measurement,setting,value
"O=C(O)[C@H](O)[C@@H](O)[C@H](O[C@@H]1O[C@H](CO)[C@H](O)[C@H](O)[C@H]1O)[C@H](O)CO [LBA, lactobionic acid]",Mean % Δb* inhibition for each group,"[1]; 0.1% LBA, Table 1",27%
same,% Δb* (yellowness) from a treatment vs positive glycation control,"[1]; 0.1% LBA, Table 1",73%
same,Convert to % Δb* inhibition (100%-% Δb*),"[1]; 0.1% LBA, Table 1",27%
same,Mean % Δb* inhibition for each group,"[1]; 0.1% LBA, Table 5",32%
same,% Δb* (yellowness) from a treatment vs positive glycation control,"[1]; 0.1% LBA, Table 5",68% and 69% and 67%
same,Convert to % Δb* inhibition (100-% Δb*),"[1]; 0.1% LBA, Table 5",32% and 31% and 33%
same,Mean % Δb* inhibition for each group,[1]; [3],32%
same,% Δb* (yellowness) from a treatment vs positive glycation control,[1]; [3],68%
same,Convert to % Δb* inhibition (100-% Δb*),[1]; [3],32%
same,Mean % Δb* inhibition for each group,"[1]; 0.2% lactobionic acid, Table 1",49%
same,% Δb* (yellowness) from a treatment vs positive glycation control,"[1]; 0.2% lactobionic acid, Table 1",50% and 53% and 51%
same,Convert to % Δb* inhibition (100%-% Δb*),"[1]; 0.2% lactobionic acid, Table 1",50% and 47% and 49%
same,Mean % ΔFLR inhibition for each group,"[2]; 0.1% LBA, Table 2",24%
same,% ΔFLR (glycation) normalized vs positive glycation control,"[2]; 0.1% LBA, Table 2, samples 1-3",77% and 75%
same,Convert to % ΔFLR inhibition (100-% ΔFLR),"[2]; 0.1% LBA, Table 2, samples 1-3",23% and 25%
same,Mean % ΔFLR inhibition for each group,"[2]; 0.1% LBA, Table 6",30%
same,% ΔFLR (glycation) normalized vs positive glycation ctrl,"[2]; 0.1% LBA, Table 6, samples 1-3",69% and 71% and 70%
same,Convert to % ΔFLR inhibition (100-% ΔFLR),"[2]; 0.1% LBA, Table 6, samples 1-3",31% and 29% and 30%
same,Mean % ΔFLR inhibition for each group,"[2]; 0.101% lactobionic acid, Table 4",27%
same,% ΔFLR (glycation) normalized vs positive glycation control,[2]; [4],73% and 74%
same,Convert to % ΔFLR inhibition (100-% ΔFLR),[2]; [4],27% and 26%
same,Mean % ΔFLR inhibition for each group,"[2]; 0.2% lactobionic acid, Table 2",44%
same,% ΔFLR (glycation) normalized vs positive glycation control,[2]; [5],55% and 56%
same,Convert to % ΔFLR inhibition (100-% ΔFLR),[2]; [5],45% and 44%

# — patent publication US20240285508A1, “METHOD AND COMPOSITION FOR IMPROVING THE APPEARANCE OF SKIN” (The Procter & Gamble Company, priority 2023, published 2024)
